Data: BindingDB's records for doi:10.1021/jm00171a016 (University of Oregon, 1990)

Assay: In vitro inhibitory activity against [3H]DTG binding to Sigma opioid receptor in guinea pig brain membrane homogenates

SMILES	IC50 [µM]
Cc1cc([N+](=O)[O-])ccc1N=C(N)Nc1ccccc1C	0.037
Cc1ccccc1N=C(N)NC1CCCCC1	0.012
Cc1cc([N+](=O)[O-])ccc1NC(N)=Nc1cccc(O)c1	0.118
Cc1cc([N+](=O)[O-])ccc1/N=C(/N)Nc1ccc([N+](=O)[O-])cc1C	0.76
N=C(NCc1ccccc1)NCc1ccccc1	0.09
Cc1ccccc1NC(N)=NC1CC2CCC1C2 (stereo not given)	0.006
NC(=Nc1ccc(Br)cc1)Nc1ccc(Br)cc1	0.54
Cc1ccccc1N=C(N)Nc1cccc(O)c1	0.207
NC(=Nc1ccccc1I)NC12CC3CC(CC(C3)C1)C2	0.006
NC(=NC1CC2CCC1C2)Nc1ccccc1I (stereo not given)	0.004
